The record followed here is ChEMBL document CHEMBL1137292, “Synthesis and activity of a folate peptide camptothecin prodrug” (Bioorg Med Chem Lett, 2006).

The test system of one assay is KB. In words: Antiproliferative activity against human KB cells expressing FR in presence of folic acid after 72 hrs by [3H]thymidine incorporation assay. The assay is classed as functional, cell-based. For orientation: Uptake of a labelled nucleoside into DNA is a usual measure of proliferation.
Assay [1] has as its target Folate receptor alpha (Homo sapiens) (UniProt P15328). As to the kind of experiment: Displacement of [3H]folic acid from human folate receptor expressed in KB cells relative to folic acid. The assay is classed as cell-based. (Displacement assays read how much labelled ligand stays bound in the presence of the test substance.)

The structures appear in SMILES notation. pIC50: −log10 of the molar value. Starred links: 1 amine or outer side, 2 acyl side, 3 side chain; linkers in the order of their positions; H or OH if unused. Residues, ends and D or L forms follow the SMILES beside them. *: point of attachment. S(CH2)2OCO2(CPT-20-yl) = CC[C@@]1(OC(=O)OCCS*)C(=O)OCc2c1cc1n(c2=O)Cc2cc3ccccc3nc2-1; Pteroyl = Nc1nc2ncc(CNc3ccc(C(=O)*)cc3)nc2c(=O)[nH]1; γGlu = O=C(O)[C@H](CCC(=O)[*:2])N[*:1]

Folate receptor alpha (Homo sapiens), sequence (P15328 25-234 limits assumed): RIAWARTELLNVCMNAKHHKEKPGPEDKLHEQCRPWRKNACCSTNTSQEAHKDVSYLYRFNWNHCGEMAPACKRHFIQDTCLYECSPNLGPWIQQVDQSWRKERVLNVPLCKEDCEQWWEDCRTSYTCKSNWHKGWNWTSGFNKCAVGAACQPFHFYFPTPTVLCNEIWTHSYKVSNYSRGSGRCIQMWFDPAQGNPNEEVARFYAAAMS

In general, pIC50 refers to −log10 of the IC50, conventionally taken in molar units. In the case of `CC[C@@]1(OC(=O)OCCSSC[C@H](NC(=O)[C@H](CC(=O)O)NC(=O)[C@H](CC(=O)O)NC(=O)[C@H](CCCNC(=N)N)NC(=O)[C@H](CC(=O)O)NC(=O)CC[C@H](NC(=O)c2ccc(NCc3cnc4nc(N)[nH]c(=O)c4n3)cc2)C(=O)O)C(=O)O)C(=O)OCc2c1cc1n(c2=O)Cc2cc3ccccc3nc2-1` ({Pteroyl-γGlu}-DRDDC(S(CH2)2OCO2(CPT-20-yl))-OH), the negative-log IC50 (pIC50) in the assay with KB is 8.00. Besides, in assay [1], the relative binding affinity (RBA) is 0.44.
